The results in this text go back to PMC9519869, “Synthesis, biological evaluation, and molecular modeling studies of new benzoxazole derivatives as PARP-2 inhibitors targeting breast cancer” (Scientific Reports, 2022).

“Also recorded” adds a separate entry of the source.

Data set [1] relates to MCF-7 cells. Briefly: Cell cycle analysis by flow cytometry (PI staining). It is filed as cell-based, human. To be noted: MCF-7 treated at IC50 concentration; for percentage of cells in pre-G1 phase (%Pre-G1) / percentage of cells in G2/M phase (%G2/M) / percentage of cells in S phase (%S) / percentage of cells in G0/G1 phase (%G0-G1): 24 h; for percentage of cells in pre-G1 phase (%Pre-G1): untreated control 1.85%; for percentage of cells in G2/M phase (%G2/M): untreated control 11.84%; for percentage of cells in S phase (%S): untreated control 29.95%; for percentage of cells in G0/G1 phase (%G0-G1): untreated control 58.21%. As for the experimental part:
For further investigation of the promising antiproliferative activity of compounds 11, 12, 13 and 27 on breast cancer MCF-7 cell line, cell cycle analysis was carried out using flow cytometric assay. […] The flow cytometric assay results were compared to the negative control untreated MCF-7 cell line.
MCF-7 cells were seeded in 24-well plate at a density of 2 × 10^5 cells/well, treated with the test compounds 11, 12, 13 and 27 at different concentrations and incubated at 37 °C for 24 h in 5% CO2 atmosphere. The cells were washed with ice-cold phosphate buffer saline (PBS) twice and fixed in 70% ice-cold ethanol overnight and then suspended in (PBS) containing PI (DNA staining solution) at concentration of 50 µg/mL, 0.1 mg/mL RNAase A (Sigma, USA) and 0.05% Triton X-100. Cells were analysed by flow cytometry after 30 min at 37 n the dark using FACSCalibur (Becton Dickinson FACS, San Jose, CA) flow cytometer. The cell cycle distributions were measured using Cell-Quest software.
Suppl. S3. Cell cycle analysis for compounds 11, 12, 13 and 27 […]
Assay : Cell Cycle Analysis
Kit used : ab139418_Propidium Iodide Flow Cytometry Kit/BD
Assay samples : Cell culture
Table S3. Cell cycle phase distribution in MCF-7 cell line treated with vehicle control and the newly synthesised compounds; 11, 12, 13 and 27. […]
(In flow cytometry, cells or beads pass a laser one at a time.)

Data set [2] relates to MDA-MB-231. Put plainly: In vitro cytotoxicity screening, MTT assay. To be noted: Homo sapiens, MDA-MB-231, 24 h, read-out: In vitro Cytotoxicity (IC50, µM) MDA-MB-231. (In general: Tetrazolium dyes change colour on reduction, which living cells bring about.)
Text: Two human breast cancer cell lines, namely, MDA-MB-231 and MCF-7 were obtained from American Type Culture Collection (ATCC) via a holding company for biological products and vaccines (VACSERA), Cairo, Egypt. […] The reagents used were RPMI-1640 medium, MTT, DMSO (sigma co., St. Louis, USA), and Fetal bovine serum (GIBCO, UK). […] MTT is a colorimetric assay based on the conversion of the yellow tetrazolium bromide (MTT) to a purple formazan derivative by mitochondrial succinate dehydrogenase in viable cells. Cell lines were cultured in RPMI-1640 medium with 10% foetal bovine serum. Antibiotics added were 100 units/ml penicillin and 100 µg/ml streptomycin maintained at 37 °C in a 5% CO2 incubator. The cell lines were seeded at a density of approximately 1.0 × 10 ^4 cells/well in a 96-well plate at 37 °C for 48 h under 5% CO2. Different concentrations of compounds were added and incubated for 24 h. After 24 h of drug treatment, 20 µl of MTT staining solution at 5 mg/ml was added to each well and incubated for 4 h at 37 °C. After 4 h, 100 µl of dimethyl sulfoxide (DMSO) were added into each well to dissolve the purple formazan crystals formed. The absorbance was recorded at 570 nm using a plate reader (EXL 800, USA). The relative cell viability in percentage was calculated as (A570 of treated samples/A570 of untreated sample) X 100 [22],[23].
The test system of data set [3] is MCF-7 cells. Briefly: Annexin V-FITC/PI double staining flow cytometry, apoptosis and necrosis. To be noted: MCF-7 treated at IC50 concentration, 24 h; for % Late apoptosis: untreated control 0.33%; for % Early apoptosis: untreated control 0.37%; for % Necrosis: untreated control 1.15%; for % Total apoptosis: untreated control 1.85%. It is filed as cell-based, human. The source says: Apoptosis, which is a programmed cell death, is considered as an important way to express cell death among anticancer agents. Most of the anticancer agents can induce apoptosis in cancerous cells. To examine whether the potent cytotoxic effect of 11, 12, 13 and 27 was attributed to apoptosis or necrosis, annexin V-FITC propidium iodide (PI) double staining flow cytometry assay was applied. […] The cells were then stained with annexin V-FITC propidium iodide (PI) and the percentage of apoptotic cells was determined by flow cytometry. […] Compounds 11, 12, 13 and 27 induced necrotic effect 5.74%, 7.23%, 6.39% and 2.07%, respectively in comparison to the untreated negative control MCF-7 cells (1.15%).
Cell death by apoptosis was detected by flow cytometric method using Annexin-V/FITC propidium iodide Apoptosis Detection Kit Catalog #: K101-25; Biovision, USA). MCF-7 cells were seeded at a density of 2 × 10 ^5 cells/well in 24-well plate, treated with the test compounds 11, 12, 13 and 27 at different concentrations and incubated at 37 °C for 24 h in 5% CO2 atmosphere. Cells were collected and suspended in 500 µl binding buffer and then 5 µl of Annexin V-FITC and 5 µl of PI were added and mixed. The mixture was incubated for 5 min in the dark at room temperature. Cell apoptosis analyses were performed using FACSCalibur (Becton Dickinson FACS, San Jose, CA) flow cytometer.

In data set [4] the target is T1, PARP-2 enzyme (Homo sapiens, UniProt Q9UGN5).
T1 construct: purchased BPS Bioscience 80,581
T1 sequence (Q9UGN5 whole entry): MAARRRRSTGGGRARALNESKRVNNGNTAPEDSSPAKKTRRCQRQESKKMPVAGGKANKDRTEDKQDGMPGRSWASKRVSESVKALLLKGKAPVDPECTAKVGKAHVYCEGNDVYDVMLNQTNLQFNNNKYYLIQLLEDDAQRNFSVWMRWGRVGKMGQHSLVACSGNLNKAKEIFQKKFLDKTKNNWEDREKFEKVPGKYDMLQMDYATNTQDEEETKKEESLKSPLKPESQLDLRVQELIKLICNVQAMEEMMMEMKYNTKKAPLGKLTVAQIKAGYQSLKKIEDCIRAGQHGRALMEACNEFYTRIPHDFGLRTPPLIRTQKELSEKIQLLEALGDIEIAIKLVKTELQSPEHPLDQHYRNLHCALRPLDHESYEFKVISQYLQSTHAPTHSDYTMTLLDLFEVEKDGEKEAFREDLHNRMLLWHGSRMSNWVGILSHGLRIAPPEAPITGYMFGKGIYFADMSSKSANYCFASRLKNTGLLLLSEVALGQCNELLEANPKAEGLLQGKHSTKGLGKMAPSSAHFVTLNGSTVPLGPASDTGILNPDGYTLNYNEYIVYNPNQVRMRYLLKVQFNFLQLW
Put plainly: Poly (ADP-ribose) polymerase 2 (PARP-2) inhibition assay (colorimetric kit). It is filed as biochemical. To be noted: for IC50: in vitro enzyme assay. The procedure: Results were expressed as IC50 values (Table 2).
The PARP-2 inhibitory activity of the test compounds was assayed using PARP-2 Colorimetric Activity Assay Kit (BPS Bioscience, catalog 80,581, San Diego, CA, USA) following the manufacturer’s protocol. Briefly, histone protein mixture was coated on a 96-well microtiter plate and incubated at 4 °C overnight, washed with phosphate-buffered saline with tween-20 (PBST) three times then, the wells were blocked by adding blocking buffer 3 and incubated at room temperature for 60–90 min. After that, the plate was washed with PBST buffer three times. The master mixture which contains the PARP buffer, PARP assay mixture, activated DNA and distilled water was added to each well then, the inhibitor solution (test compound) was added. The reaction was initiated by adding PARP-2 enzyme to the wells and the plate was incubated for 1 h at room temperature. After 1 h, the reaction mixture was discarded, and the plate was washed with PBST buffer three times. Finally, the plate was treated with Streptavidin–Horseradish Peroxidase (HRP) and incubated for 30 min at room temperature and then washed with PBST buffer. The colorimetric HRP substrate was added to each well and incubated at room temperature until the positive control well developed blue color. Sulphuric acid was added to each well after the blue color development. The absorbance was read at 450 nm using UV/Vis spectrophotometer microplate reader.
Suppl. S2. In vitro PARP-2 enzyme inhibition assay
Researcher : Dr. Nadeen Ghobashy email:elghobashynadeen@gmail.com mob.01008873340
Reader : ROBONIK P2000 Eliza Reader wl 450 nm

A word on the IC50: it is the point on the concentration scale where inhibition reaches its midpoint. Consider `CN1CCN(CCC(=O)Nc2ccc(-c3nc4cc(Cl)ccc4o3)cc2)CC1` [Compound 13, N-(4-(5-chlorobenzoxazol-2-yl)phenyl)-3-(4-methylpiperazin-1-yl)propanamide], for which, in data set [1], the “cell cycle arrest phase” value is on record as “cell growth arrest@ G2/M; also recorded: cell cycle arrest at G2/M phase”, the “percentage of cells in pre-G1 phase (%Pre-G1)” value (“percentage of cells … (%Pre-G1)” below) is 29.66%, the “percentage of cells in G2/M phase (%G2/M)” value (“percentage … (%G2/M)” below) was found to be 26.51% and the “percentage of cells in S phase (%S)” value stood at 28.51%. For the same molecule, the “percentage of cells in G0/G1 phase (%G0-G1)” value (“percentage of cells … (%G0-G1)” below) in data set [1] is recorded as 44.98%. In addition, in data set [2], the IC50 came to 7.52 ± 0.6 µM. In data set [3], the “% Late apoptosis” value is 10.99%, the “% Early apoptosis” value stood at 12.28%, the “% Necrosis” value stood at 6.39% and the “% Total apoptosis” value is 29.66%. In addition, the “%inh of PARP-2 (Table S2 raw data)” value in data set [4] (conc 0.01 (ng/ml)) is listed as 30.58%. Besides, the “%inh of PARP-2 (Table S2 raw data)” value in data set [4] (conc 0.1 (ng/ml)) is given as 46.82%. Moreover, the “%inh of PARP-2 (Table S2 raw data)” value in data set [4] (conc 1 (ng/ml)) came to 71.31%. The “%inh of PARP-2 (Table S2 raw data)” value in data set [4] (conc 10 (ng/ml)) worked out at 88.69%. In data set [4], this molecule registered a half-inhibitory concentration (IC50) of 0.106 ± 0.006 µM.
On to `CCN(CC)CCC(=O)Nc1ccc(-c2nc3cc(Cl)ccc3o2)cc1` [Compound 27, N-(4-(5-chlorobenzoxazol-2-yl)phenyl)-3-(diethylamino)propanamide], for which, in data set [1], the “percentage of cells … (%Pre-G1)” value was 25.91%, the “percentage … (%G2/M)” value is listed as 4.46%, the “percentage of cells in S phase (%S)” value was 33.16% and the “percentage of cells … (%G0-G1)” value is reported as 62.38%. For the same molecule, the half-maximal inhibitory concentration (IC50) in data set [2] amounted to 11.3 ± 0.9 µM. Also, in data set [3], the “% Late apoptosis” value was found to be 4.58%, the “% Early apoptosis” value amounted to 19.26%, the “% Necrosis” value is 2.07% and the “% Total apoptosis” value came out at 25.91%. The “%inh of PARP-2 (Table S2 raw data)” value in data set [4] (conc 0.01 (ng/ml)) was found to be 37.25%. Besides, the “%inh of PARP-2 (Table S2 raw data)” value in data set [4] (conc 0.1 (ng/ml)) was determined as 52.67%. The “%inh of PARP-2 (Table S2 raw data)” value in data set [4] (conc 1 (ng/ml)) was found to be 73.48%. Further, the “%inh of PARP-2 (Table S2 raw data)” value in data set [4] (conc 10 (ng/ml)) came out at 88.84%. The molecule also yielded an IC50 in data set [4] of 0.057 ± 0.003 µM.
In the case of `O=C(CCN1CCCCC1)Nc1ccc(-c2nc3cc(Cl)ccc3o2)cc1` [Compound 11, N-(4-(5-chlorobenzoxazol-2-yl)phenyl)-3-(piperidin-1-yl)propanamide], in data set [1], the “cell cycle arrest phase” value is listed as “cell growth arrest@ G1; also recorded: cell cycle arrest at G0/G1 phase”, the “percentage of cells … (%Pre-G1)” value is 45.07%, the “percentage … (%G2/M)” value stood at 7.22% and the “percentage of cells in S phase (%S)” value is given as 24.76%. The “percentage of cells … (%G0-G1)” value in data set [1] was found to be 68.02%. In data set [2], the IC50 came to 5.63 ± 0.3 µM. Also, in data set [3], the “% Late apoptosis” value is 23.02%, the “% Early apoptosis” value amounted to 16.31%, the “% Necrosis” value turned out to be 5.74% and the “% Total apoptosis” value is on record as 45.07%. Besides, in data set [4] (conc 0.01 (ng/ml)), the “%inh of PARP-2 (Table S2 raw data)” value is recorded as 28.75%. For the same molecule, the “%inh of PARP-2 (Table S2 raw data)” value in data set [4] (conc 0.1 (ng/ml)) is 43.61%. In data set [4] (conc 1 (ng/ml)), the “%inh of PARP-2 (Table S2 raw data)” value turned out to be 58.88%. Further, in data set [4] (conc 10 (ng/ml)), the “%inh of PARP-2 (Table S2 raw data)” value was found to be 84.97%. Also, the half-inhibitory concentration (IC50) in data set [4] came to 0.19 ± 0.01 µM.
As a reminder, the melting point is the temperature of the solid-liquid transition. `CCN1CCN(CCC(=O)Nc2ccc(-c3nc4cc(Cl)ccc4o3)cc2)CC1` [Compound 14, N-(4-(5-chlorobenzoxazol-2-yl)phenyl)-3-(4-ethylpiperazin-1-yl)propanamide]: the melting point fell in the range of 167 to 169 °C. In data set [2], the IC50 was 10.8 ± 0.9 µM. Besides, the “%inh of PARP-2 (Table S2 raw data)” value in data set [4] (conc 0.01 (ng/ml)) is 33.28%. Also, in data set [4] (conc 0.1 (ng/ml)), the “%inh of PARP-2 (Table S2 raw data)” value was 46.83%. The “%inh of PARP-2 (Table S2 raw data)” value in data set [4] (conc 1 (ng/ml)) is 75.72%. Moreover, the “%inh of PARP-2 (Table S2 raw data)” value in data set [4] (conc 10 (ng/ml)) was found to be 90.54%. In data set [4], this molecule gave an IC50 of 0.084 ± 0.005 µM.
On to `O=C(CCN1CCOCC1)Nc1ccc(-c2nc3cc(Cl)ccc3o2)cc1` [Compound 12, N-(4-(5-chlorobenzoxazol-2-yl)phenyl)-3-morpholinopropanamide], for which, in data set [1], the “percentage of cells … (%Pre-G1)” value was determined as 33.47%, the “percentage … (%G2/M)” value is 32.04%, the “percentage of cells in S phase (%S)” value is on record as 26.18% and the “percentage of cells … (%G0-G1)” value came out at 41.78%. Also, the IC50 in data set [2] was 6.14 ± 0.5 µM. In data set [3], the “% Late apoptosis” value worked out at 3.72%, the “% Early apoptosis” value is recorded as 22.52%, the “% Necrosis” value stood at 7.23% and the “% Total apoptosis” value worked out at 33.47%. The “%inh of PARP-2 (Table S2 raw data)” value in data set [4] (conc 0.01 (ng/ml)) came to 35.69%. Further, in data set [4] (conc 0.1 (ng/ml)), the “%inh of PARP-2 (Table S2 raw data)” value was determined as 53.11%. For the same molecule, in data set [4] (conc 1 (ng/ml)), the “%inh of PARP-2 (Table S2 raw data)” value was 67.93%. In data set [4] (conc 10 (ng/ml)), the “%inh of PARP-2 (Table S2 raw data)” value is 90.18%. The same molecule came in with a half-maximal inhibitory concentration (IC50) in data set [4] of 0.07 ± 0.004 µM.
Regarding `O=C(CNCCCc1ccccc1)Nc1ccc(-c2nc3cc(Cl)ccc3o2)cc1` [Compound 22, N-(4-(5-chlorobenzoxazol-2-yl)phenyl)-2-((3-phenylpropyl)amino)acetamide], the melting point lay within 93 to 95 °C. Besides, in data set [2], the half-maximal inhibitory concentration (IC50) came out at 17.4 ± 1.4 µM. Besides, the “%inh of PARP-2 (Table S2 raw data)” value in data set [4] (conc 0.01 (ng/ml)) is 27.08%. For the same molecule, the “%inh of PARP-2 (Table S2 raw data)” value in data set [4] (conc 0.1 (ng/ml)) was 33.43%. Further, the “%inh of PARP-2 (Table S2 raw data)” value in data set [4] (conc 1 (ng/ml)) is listed as 58.97%. Further, the “%inh of PARP-2 (Table S2 raw data)” value in data set [4] (conc 10 (ng/ml)) was 86.49%. This molecule registered an IC50 in data set [4] of 0.267 ± 0.015 µM.
